Where a name gives a salt, the structure may show the parent alone.
Tests used:
Yes = Yes (Homo sapiens, UniProt P07947); test: Kinase inhibitory activity test (per WO2011/147066); format: biochemical
Protocol: (§1) The salt sample obtained from Example 1 was tested according to the kinase inhibitory activity test described in the biological assessment of the patent application WO2011/147066.

Lck(h) = Lck(h) (Homo sapiens, UniProt P06239); test: as above; format: biochemical
Protocol: as §1

BTK = BTK (Homo sapiens, UniProt Q06187); test: as above; format: biochemical; conditions: result in words
Protocol: as §1

FGFRl(h) = FGFRl(h) (Homo sapiens, UniProt P11362); test: as above; format: biochemical
Protocol: as §1

FLT3(h) = FLT3(h) (Homo sapiens, UniProt P36888); test: as above; format: biochemical
Protocol: as §1

ALK = ALK (Homo sapiens, UniProt Q9UM73); test: as above; format: biochemical; conditions: result in words
Protocol: as §1

MET = MET (Homo sapiens, UniProt P08581); test: as above; format: biochemical; conditions: result in words
Protocol: as §1

FLT3-ITD(h) = FLT3-ITD(h) (Homo sapiens, UniProt P36888); test: as above; format: biochemical
Protocol: as §1

KDR(h) = KDR(h) (Homo sapiens, UniProt P35968); test: as above; format: biochemical
Protocol: as §1

Fyn(h) = Fyn(h) (Homo sapiens, UniProt P06241); test: as above; format: biochemical
Protocol: as §1

PDGFRα = PDGFRα (Homo sapiens, UniProt P16234); test: as above; format: biochemical; conditions: result in words
Protocol: as §1

c-KIT = c-KIT (Homo sapiens, UniProt P10721); test: as above; format: biochemical; conditions: result in words
Protocol: as §1

Ret(h) = Ret(h) (Homo sapiens, UniProt P07949); test: as above; format: biochemical
Protocol: as §1

c-SRC(h) = c-SRC(h) (Homo sapiens, UniProt P12931); test: as above; format: biochemical
Protocol: as §1

Abl(h) = Abl(h) (Homo sapiens, UniProt P00519); test: as above; format: biochemical
Protocol: as §1

VEGFR2 = VEGFR2 (Homo sapiens, UniProt P35968); test: as above; format: biochemical; conditions: VEGFR2, result in words
Protocol: as §1

Hck(h) = Hck(h) (Homo sapiens, UniProt P08631); test: as above; format: biochemical
Protocol: as §1

Lyn(h) = Lyn(h) (Homo sapiens, UniProt P07948); test: as above; format: biochemical
Protocol: as §1

Long-term stability test = format: physicochemical; conditions: 25±2° C., relative humidity 60%±5%; for Content (%) / Moisture (%) / Related substances (%): packaged; for Acidity: pH value of 10 mg in 10 mL water
Protocol: Detection instrument: Karl Fischer moisture titrator/915 KF Ti-Touch
Test method: After the instrument was balanced, a proper amount (about 200 mg) of the test sample was taken, precisely weighed, and added to a titration cup, absolute methanol was used as the solvent, and a moisture titration solution was used for the direct measurement, and an average value was obtained by measuring each test sample twice.
Detection Instrument: High performance liquid chromatograph/Waters e2695-2489
Octadecyl silane bonded to silica gel was used as a filler (the applicable range of the pH value should be greater than 10.0), 20 mmol/L of disodium hydrogen phosphate solution (the pH value was adjusted to 10.0 with sodium hydroxide)-acetonitrile (65:35) was used as the mobile phase; the detection wavelength was 287 nm, and the column temperature was 30° C. The number of theoretical plates should be not less than 3000.
Determination method: About 20 mg of the sample was taken and precisely weighed, put in a 100 mL volumetric flask. A diluent (50% methanol/water) was added to dissolve and dilute the sample to the scale. The content was shaken uniformly, and 10 μL was precisely metered and injected into a liquid chromatograph, and the chromatogram was recorded; another appropriate amount of the reference substance was taken, and the same method was used for determination. The result was obtained by calculating the peak area according to the external standard method.
Detection instrument: Mettler Toledo S210-K pH meter
Test method: Based on the operation according to the pH value measurement method, 10 mg of a sample was precisely weighed, then 10 mL of freshly boiled and cooled purified water was added to dissolve the sample, and the mixture was shaken uniformly, and then the pH value was measured.
12. Measurement of Related Substances
Detection instrument: High performance liquid chromatograph/Waters e2695-2489
Chromatographic Conditions:
Octadecylsilane bonded to silica gel was used as a filler (Model: Waters Xbridge C18 chromatographic column, with a length of 250 mm, an inner diameter of 4.6 mm, and a filler particle size of 5 μm), the detection wavelength was 250 nm, the column temperature was 35° C., and the flow rate was 1.0 mL/minute, the mobile phase A was 0.02 mol/L of a disodium hydrogen phosphate solution (the pH value was adjusted to 10.0 with a sodium hydroxide solution), the mobile phase B was acetonitrile, and the diluent was methanol, and the temperature of the sample plate was 4° C.
Test method: The system applicability test was performed according to the requirements, and the test sample solution, the control solution, and the sensitivity solution were prepared. Each 10 μL of the control solution and the test sample solution were precisely metered and injected into a liquid chromatograph, and the chromatogram was recorded. The result was obtained by calculating the peak area according to the self-dilution control method with the correction factor.
An appropriate amount of the salt sample obtained from Example 1 was taken, a medicinal low-density polyethylene sack was used as the internal packaging, and a polyester/aluminum/polyethylene composite bag for medicine packaging was used as the external packaging. Samples were taken respectively at the end of the 3rd, 6th, 9th, 12th, and 18th months after being stored at a temperature of 25±2° C. under a relative humidity of 60%±5%. The appearances were compared, followed by measuring other investigation indexes. The results were compared with those measured in the 0th month.

Sequence of Fyn(h) (P06241 whole entry): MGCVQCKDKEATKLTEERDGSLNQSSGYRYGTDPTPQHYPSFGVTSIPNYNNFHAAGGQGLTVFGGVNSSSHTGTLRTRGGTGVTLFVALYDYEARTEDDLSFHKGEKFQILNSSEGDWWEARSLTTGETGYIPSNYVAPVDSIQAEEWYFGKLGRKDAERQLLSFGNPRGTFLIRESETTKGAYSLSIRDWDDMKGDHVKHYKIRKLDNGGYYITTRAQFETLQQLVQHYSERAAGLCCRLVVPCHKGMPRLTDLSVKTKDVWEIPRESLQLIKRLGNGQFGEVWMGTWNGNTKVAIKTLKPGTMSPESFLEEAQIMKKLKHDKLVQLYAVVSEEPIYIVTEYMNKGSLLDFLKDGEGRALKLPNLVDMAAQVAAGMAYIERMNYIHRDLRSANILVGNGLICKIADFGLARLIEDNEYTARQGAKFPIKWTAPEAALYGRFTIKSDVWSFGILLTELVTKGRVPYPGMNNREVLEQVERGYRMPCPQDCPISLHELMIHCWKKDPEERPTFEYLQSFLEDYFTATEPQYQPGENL
Sequence of Abl(h) (P00519 whole entry): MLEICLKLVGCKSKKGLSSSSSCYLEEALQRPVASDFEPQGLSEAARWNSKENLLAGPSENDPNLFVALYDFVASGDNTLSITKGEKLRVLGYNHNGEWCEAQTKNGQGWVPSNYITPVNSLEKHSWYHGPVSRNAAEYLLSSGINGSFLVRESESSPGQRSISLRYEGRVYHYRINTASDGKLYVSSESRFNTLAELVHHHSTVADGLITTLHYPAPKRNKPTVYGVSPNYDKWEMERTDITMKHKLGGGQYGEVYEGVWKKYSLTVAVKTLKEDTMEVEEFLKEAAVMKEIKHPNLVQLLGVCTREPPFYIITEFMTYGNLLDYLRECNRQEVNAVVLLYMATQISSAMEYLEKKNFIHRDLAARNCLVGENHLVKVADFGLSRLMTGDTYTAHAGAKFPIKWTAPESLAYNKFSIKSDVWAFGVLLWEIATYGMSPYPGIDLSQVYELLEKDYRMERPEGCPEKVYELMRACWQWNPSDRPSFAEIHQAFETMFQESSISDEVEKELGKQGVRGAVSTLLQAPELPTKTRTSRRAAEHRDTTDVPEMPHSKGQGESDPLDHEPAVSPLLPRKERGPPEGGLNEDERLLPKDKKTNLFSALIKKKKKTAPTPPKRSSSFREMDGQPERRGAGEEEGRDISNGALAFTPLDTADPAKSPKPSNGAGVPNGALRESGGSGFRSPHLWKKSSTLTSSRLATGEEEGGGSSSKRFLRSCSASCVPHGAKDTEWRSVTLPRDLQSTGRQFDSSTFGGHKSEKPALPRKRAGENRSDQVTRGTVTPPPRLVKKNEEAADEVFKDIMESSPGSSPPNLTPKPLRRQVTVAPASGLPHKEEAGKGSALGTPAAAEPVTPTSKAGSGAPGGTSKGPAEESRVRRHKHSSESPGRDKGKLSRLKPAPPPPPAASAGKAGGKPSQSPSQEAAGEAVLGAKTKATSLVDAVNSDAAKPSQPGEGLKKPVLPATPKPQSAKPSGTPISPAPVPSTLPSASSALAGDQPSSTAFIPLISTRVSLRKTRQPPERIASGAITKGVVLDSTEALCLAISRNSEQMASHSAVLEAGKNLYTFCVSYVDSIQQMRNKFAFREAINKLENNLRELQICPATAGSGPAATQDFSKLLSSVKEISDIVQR
Sequence of VEGFR2 (P35968 20-1356): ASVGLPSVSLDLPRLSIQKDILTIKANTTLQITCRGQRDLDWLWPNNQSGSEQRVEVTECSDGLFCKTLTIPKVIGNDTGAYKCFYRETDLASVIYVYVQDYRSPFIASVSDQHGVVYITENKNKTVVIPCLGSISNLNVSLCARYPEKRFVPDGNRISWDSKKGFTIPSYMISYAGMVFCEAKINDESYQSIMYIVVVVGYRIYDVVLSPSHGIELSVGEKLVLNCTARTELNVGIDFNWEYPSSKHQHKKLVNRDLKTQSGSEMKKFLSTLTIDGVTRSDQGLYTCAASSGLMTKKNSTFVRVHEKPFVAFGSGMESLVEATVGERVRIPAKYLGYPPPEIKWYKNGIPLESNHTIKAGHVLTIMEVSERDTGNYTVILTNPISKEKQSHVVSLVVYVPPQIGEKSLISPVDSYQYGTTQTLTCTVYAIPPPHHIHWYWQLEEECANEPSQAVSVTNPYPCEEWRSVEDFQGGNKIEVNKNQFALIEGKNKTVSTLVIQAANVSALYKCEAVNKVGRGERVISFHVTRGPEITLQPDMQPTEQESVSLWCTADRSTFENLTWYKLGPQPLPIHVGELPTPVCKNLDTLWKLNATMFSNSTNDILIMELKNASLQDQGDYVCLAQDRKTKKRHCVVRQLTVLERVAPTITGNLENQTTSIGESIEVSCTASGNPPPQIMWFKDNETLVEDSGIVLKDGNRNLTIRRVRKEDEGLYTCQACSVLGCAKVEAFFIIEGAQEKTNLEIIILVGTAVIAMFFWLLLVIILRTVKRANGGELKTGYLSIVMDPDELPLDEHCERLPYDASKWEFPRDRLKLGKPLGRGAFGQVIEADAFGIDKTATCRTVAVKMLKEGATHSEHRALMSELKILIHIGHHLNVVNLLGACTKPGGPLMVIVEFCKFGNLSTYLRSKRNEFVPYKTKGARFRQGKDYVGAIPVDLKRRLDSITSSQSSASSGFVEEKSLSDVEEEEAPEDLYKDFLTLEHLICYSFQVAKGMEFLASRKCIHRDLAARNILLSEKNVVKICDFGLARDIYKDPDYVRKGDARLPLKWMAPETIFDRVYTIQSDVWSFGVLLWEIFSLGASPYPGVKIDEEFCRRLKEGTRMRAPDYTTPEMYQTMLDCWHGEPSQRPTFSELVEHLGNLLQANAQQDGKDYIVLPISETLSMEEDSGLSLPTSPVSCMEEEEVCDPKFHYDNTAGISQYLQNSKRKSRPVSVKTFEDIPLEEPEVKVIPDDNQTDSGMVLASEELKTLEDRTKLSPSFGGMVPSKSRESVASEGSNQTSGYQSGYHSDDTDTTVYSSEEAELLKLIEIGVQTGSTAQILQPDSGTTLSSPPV
Sequence of KDR(h) (P35968 20-1356): as above
Sequence of Lck(h) (P06239 whole entry): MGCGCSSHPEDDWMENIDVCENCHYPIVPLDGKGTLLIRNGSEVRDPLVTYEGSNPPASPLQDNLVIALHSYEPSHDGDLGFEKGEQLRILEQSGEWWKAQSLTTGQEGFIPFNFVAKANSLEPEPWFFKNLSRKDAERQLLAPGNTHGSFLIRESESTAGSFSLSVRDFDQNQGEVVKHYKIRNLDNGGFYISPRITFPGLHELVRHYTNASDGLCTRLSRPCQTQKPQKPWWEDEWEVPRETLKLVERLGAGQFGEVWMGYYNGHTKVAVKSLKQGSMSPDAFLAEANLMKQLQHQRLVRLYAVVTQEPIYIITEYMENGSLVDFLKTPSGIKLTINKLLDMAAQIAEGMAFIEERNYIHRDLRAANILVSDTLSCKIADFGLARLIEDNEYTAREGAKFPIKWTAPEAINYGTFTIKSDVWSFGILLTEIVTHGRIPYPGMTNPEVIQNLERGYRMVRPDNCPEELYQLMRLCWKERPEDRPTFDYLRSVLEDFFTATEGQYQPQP
Sequence of FLT3(h) (P36888 27-993): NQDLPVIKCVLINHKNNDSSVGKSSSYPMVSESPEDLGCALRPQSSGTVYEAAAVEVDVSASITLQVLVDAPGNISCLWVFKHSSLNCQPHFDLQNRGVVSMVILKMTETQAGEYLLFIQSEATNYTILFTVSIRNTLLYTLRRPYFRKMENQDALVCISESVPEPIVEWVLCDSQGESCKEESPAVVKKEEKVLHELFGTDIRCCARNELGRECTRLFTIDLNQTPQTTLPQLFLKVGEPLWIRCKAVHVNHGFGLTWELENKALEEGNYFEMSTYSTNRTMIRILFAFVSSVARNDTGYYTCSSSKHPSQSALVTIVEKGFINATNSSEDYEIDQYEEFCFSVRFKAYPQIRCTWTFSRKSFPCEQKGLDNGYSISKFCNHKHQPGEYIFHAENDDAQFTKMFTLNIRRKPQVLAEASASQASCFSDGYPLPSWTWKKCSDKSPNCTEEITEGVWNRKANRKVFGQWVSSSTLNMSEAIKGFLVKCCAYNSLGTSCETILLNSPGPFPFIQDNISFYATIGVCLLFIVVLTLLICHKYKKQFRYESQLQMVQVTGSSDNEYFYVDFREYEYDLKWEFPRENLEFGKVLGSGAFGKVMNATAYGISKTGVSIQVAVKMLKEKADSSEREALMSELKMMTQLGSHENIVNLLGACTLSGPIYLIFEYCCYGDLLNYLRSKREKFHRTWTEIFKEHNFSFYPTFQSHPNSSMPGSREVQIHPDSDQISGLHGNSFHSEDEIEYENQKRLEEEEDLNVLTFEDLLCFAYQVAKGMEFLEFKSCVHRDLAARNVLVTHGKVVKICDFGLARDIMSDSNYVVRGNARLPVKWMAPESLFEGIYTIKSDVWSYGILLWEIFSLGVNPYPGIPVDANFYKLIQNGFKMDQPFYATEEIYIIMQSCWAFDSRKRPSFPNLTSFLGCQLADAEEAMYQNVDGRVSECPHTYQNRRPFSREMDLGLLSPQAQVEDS
Sequence of Lyn(h) (P07948 whole entry): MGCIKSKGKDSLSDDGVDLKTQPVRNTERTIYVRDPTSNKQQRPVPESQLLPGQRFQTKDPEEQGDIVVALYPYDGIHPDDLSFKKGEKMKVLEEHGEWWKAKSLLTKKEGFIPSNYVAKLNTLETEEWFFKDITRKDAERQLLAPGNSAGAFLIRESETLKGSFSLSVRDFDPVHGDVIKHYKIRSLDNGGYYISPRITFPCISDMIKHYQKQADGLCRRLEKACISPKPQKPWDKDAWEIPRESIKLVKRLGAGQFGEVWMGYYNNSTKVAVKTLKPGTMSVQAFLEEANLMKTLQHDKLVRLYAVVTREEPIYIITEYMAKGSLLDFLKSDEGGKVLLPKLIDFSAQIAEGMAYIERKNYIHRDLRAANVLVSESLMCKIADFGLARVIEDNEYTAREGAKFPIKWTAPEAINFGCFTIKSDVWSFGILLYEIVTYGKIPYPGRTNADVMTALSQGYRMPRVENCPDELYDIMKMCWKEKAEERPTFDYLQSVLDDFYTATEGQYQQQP

- IC50 (Yes): 4 nM
- IC50 (Lck(h)): 37 nM
- inhibition of kinase activity (BTK): could inhibit the activities
- IC50 (FGFRl(h)): 247 nM
- IC50 (FLT3(h)): 26 nM
- inhibition of kinase activity (ALK): could inhibit the activities
- inhibition of kinase activity (MET): could inhibit the activities
- IC50 (FLT3-ITD(h)): 3 to 10 nM
- IC50 (KDR(h)): 323 nM
- IC50 (Fyn(h)): 34 nM
- inhibition of kinase activity (PDGFRα): could inhibit the activities
- inhibition of kinase activity (c-KIT): could inhibit the activities
- IC50 (Ret(h)): 10 nM
- IC50 (c-SRC(h)): 176 nM
- IC50 (Abl(h)): 25 nM
- inhibition of kinase activity (VEGFR2): could inhibit the activities
- IC50 (Hck(h)): 93 nM
- IC50 (Lyn(h)): 7 nM
- Content (%) (Long-term stability test; 0 Month): 100.9%
- Moisture (%) (Long-term stability test; 0 Month): 13.9%
- Related substances (%) (Long-term stability test; 0 Month): 0.33%
- Content (%) (Long-term stability test; 3 Month): 100.4%
- Moisture (%) (Long-term stability test; 3 Month): 13.9%
- Related substances (%) (Long-term stability test; 3 Month): 0.34%
- Content (%) (Long-term stability test; 6 Month): 100.8%
- Moisture (%) (Long-term stability test; 6 Month): 14.3%
- Related substances (%) (Long-term stability test; 6 Month): 0.34%
- Content (%) (Long-term stability test; 9 Month): 101.7%
- Moisture (%) (Long-term stability test; 9 Month): 14.3%
- Related substances (%) (Long-term stability test; 9 Month): 0.31%
- Content (%) (Long-term stability test; 12 Month): 99.6%
- Moisture (%) (Long-term stability test; 12 Month): 13.9%
- Related substances (%) (Long-term stability test; 12 Month): 0.34%
- Content (%) (Long-term stability test; 18 Month): 100.2%
- Moisture (%) (Long-term stability test; 18 Month): 14.2%
- Related substances (%) (Long-term stability test; 18 Month): 0.26%
- Acidity (Long-term stability test; 0 Month): 3.1
- Acidity (Long-term stability test; 3 Month): 3.3
- Acidity (Long-term stability test; 6 Month): 3.3
- Acidity (Long-term stability test; 9 Month): 3.3
- Acidity (Long-term stability test; 12 Month): 3.3
- Acidity (Long-term stability test; 18 Month): 3.3
SMILES: CC(C)n1c(Nc2cccnc2)nc2cnc(Nc3ccc(N4CCN(C)CC4)cc3)nc21 [Example 1, arylaminopurine derivative.trihydrochloride.pentahydrate]
